Here are results for seven compounds from patent US11358956B2, “Compounds containing polysubstituted benzo[d][1,3]oxathiole, benzo[d][1,3]oxathiole 3-oxide or benzo[d][1,3]oxathiole 3,3-dioxide and methods/uses thereof as agonists of G protein-coupled receptor 119” (PRAMANA PHARMACEUTICALS INC., priority 2017, dated 2022).

Each structure is given as a SMILES string. Read-outs that look alike come from different tables or passages of the source.

In assay [1] the target is T1, human GPR119 receptor (Homo sapiens, UniProt Q8TDV5).
T1 construct: host or cells: CHO
T1 sequence (Q8TDV5 1-335): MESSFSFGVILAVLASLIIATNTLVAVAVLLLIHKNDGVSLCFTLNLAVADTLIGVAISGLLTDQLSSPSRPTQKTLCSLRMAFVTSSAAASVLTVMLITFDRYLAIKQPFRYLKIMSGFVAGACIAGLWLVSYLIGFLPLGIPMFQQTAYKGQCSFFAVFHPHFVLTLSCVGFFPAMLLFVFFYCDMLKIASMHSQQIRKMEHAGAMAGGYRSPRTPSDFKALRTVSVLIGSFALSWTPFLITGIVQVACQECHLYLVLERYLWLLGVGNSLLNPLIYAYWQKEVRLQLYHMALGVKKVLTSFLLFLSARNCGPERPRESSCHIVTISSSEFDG
In words: LANCE Ultra cAMP assay: stimulation of GPR119-mediated cAMP production in CHO cells stably expressing human GPR119 receptor. In kind it is cell-based. Here is the method: The potency of GPR119 receptor agonists was assessed by measuring the stimulation of GPR119-mediated cAMP production with LANCE Ultra cAMP assay (Perkin Elmer, TRF0264) in CHO cells stably expressing human GPR119 receptor (Chantest, cat. #A633). CHO-GPR119 cells were cultured in DMEM/F12 medium supplemented with 10% FBS and 1% NEAA at 37° C., 5% CO2, aliquoted and frozen in liquid nitrogen.
For assay, cells were thawed in a water bath at 37° C., washed in Hank's Balanced Salt Solution (HBSS) and resuspended in Stimulation Buffer 1 (SB1) for 30 min: 5 mM HEPES, pH 7.2-7.4, 0.1% BSA in HBSS. […] The ULight-anti-cAMP antibody (Perkin Elmer, TRF0264) was added to the cell suspension making Mix [Cell suspension/4× ULight-anti-cAMP antibodies]. The resulting cell suspension Mix was plated to 384-well assay plates (Corning, white low volume, #3674) 5 µL/well. The assay plate was centrifuged 200 g, 5 sec.
Serial dilution (100×) of tested compounds were prepared in DMSO in the range of from 30 nM to 1 mM with half-log step in 384-well plates (Greiner, 781280) using Biomek 2000. 10 test concentrations in two repeats were prepared for each CRC. It was diluted 50 times in SB1 and each tested concentration was added to cells in the assay plate—5 µL/well. The assay plate was incubated 30 minutes at room temperature on a shaker, 250 rpm to allow GPR119 receptor stimulation. The cAMP level was determined according to the standard kit supplier protocol (PerkinElmer, cat. #TRF0264).
The stock solution of the Eu-cAMP tracer (Perkin Elmer, TRF0264) was diluted 1:100 in cAMP Detection Buffer (Perkin Elmer, TRF0264), making 2× working concentration and added to the assay plate, 10 μL per well. Assay plate was centrifuged 180 g, 1 sec. Then the assay plate was incubated for 60′ at room temperature on shaker, 250 rpm to allow cAMP detection. The TR-FRET signal was measured at Ex-340 nm/Em-615 and Ex-340 nm/Em-665 nm on the reader Tecan M1000. 0% of cAMP stimulation corresponds to the cells with DMSO only, 100% of cAMP stimulation corresponds to the cells with […] Forskolin. The EC50 value defined as the concentration of the drug that gives half-maximal response, were calculated using GraphPad Prizm 5.0 software with forskolin was used as references at each test. Entries 1-17 in Table 2A and entries 1-14 in Table 2B show the biological activity of certain representative compounds using the protocol as described above.

In assay [2] the target is T1, human GPR119 receptor. The assay is described as above. In kind it is cell-based. Particulars: read-out: % cAMP Max. relative to forscolin.
Where [3] appears, read: Table 2A entries 1-17, protocol as described (800,000 cells/mL suspension), CHO-GPR119 cells.
[4] abbreviates: Table 2C entries 1-4, modified protocol, 500 cells/well.

Compound `NCC(=O)N1CCC(COc2ccc(-c3ccc4c(c3)OCS4(=O)=O)cc2F)CC1` [Example A-17] gave an EC50 in assay [1] (setting [3]) of 10000 nM. This lies in the double-digit micromolar range. On the same count and under the same terms, the value for `NC(=O)N1CCC(COc2ccc(-c3ccc4c(c3)OCS4(=O)=O)cc2F)CC1` [Example A-20] was 10000 nM. In the case of `O=C(O)CN1CCC(COc2ccc(-c3ccc4c(c3)OCS4(=O)=O)cc2F)CC1` [Example A-23, 2-(4-((4-(3,3-Dioxido-2H-benzo[d][1,3]oxathiol-6-yl)-2-fluorophenyoxy) Methyl)-piperidin-1-yl)acetic Acid], in assay [2] (Table 2A entries 1-17, protocol as described, 100% = cells with Forskolin, 0% = DMSO only), the Emax was determined as 66%. In assay [1] (setting [3]), this compound yielded an EC50 of 7040 nM. With `CC1(C)Oc2cc(-c3ccc(OCC4CCN(c5ncc(Cl)cn5)CC4)c(F)c3)ccc2S1(=O)=O` [Example C-5, 5-chloro-2-(4-{[4-(2,2-dimethyl-3,3-dioxido-1,3-benzoxathiol-6-yl)-2-fluorophenoxy]methyl}piperidin-1-yl)pyrimidine], the Emax in assay [2] (setting [4]) was 81%. In assay [1] (setting [4]), the EC50 was 68.6 nM. The corresponding values for `O=S1(=O)c2ccc(-c3ccc(OCC4CCN(c5ncc(Cl)cn5)CC4)c(F)c3)cc2OC12CCCC2` [Example C-8, 5-chloro-2-(4-{[4-(3,3-dioxidospiro[1,3-benzoxathiole-2,1′-cyclopentan]-6-yl)-2-fluorophenoxy]methyl}piperidin-1-yl)pyrimidine] are 66% and 114 nM.

As for `O=S1(=O)c2ccc(-c3ccc(OCC4CCN(c5ncc(Cl)cn5)CC4)c(F)c3)cc2OC12CCCCC2` [Example C-11, 5-chloro-2-(4-{[4-(3,3-dioxidospiro[1,3-benzoxathiole-2,1′-cyclohexan]-6-yl)-2-fluorophenoxy]methyl}piperidin-1-yl)pyrimidine], the Emax in assay [2] (setting [4]) is 25%. In assay [1] (setting [4]), this compound registered an EC50 of 33 nM. With `O=S1(=O)c2ccc(-c3ccc(OCC4CCN(c5ncc(Cl)cn5)CC4)c(F)c3)cc2OC12CCC2` [Example C-14, 5-chloro-2-(4-{[4-(3,3-dioxidospiro[1,3-benzoxathiole-2,1′-cyclobutan]-6-yl)-2-fluorophenoxy]methyl}piperidin-1-yl)pyrimidine], the Emax in assay [2] (setting [4]) worked out at 67%. In addition, in assay [1] (setting [4]), the EC50 is 29.8 nM.
